This assay concerns the target T1, human recombinant renin (Homo sapiens, UniProt P00797).
T1 sequence (P00797 67-406): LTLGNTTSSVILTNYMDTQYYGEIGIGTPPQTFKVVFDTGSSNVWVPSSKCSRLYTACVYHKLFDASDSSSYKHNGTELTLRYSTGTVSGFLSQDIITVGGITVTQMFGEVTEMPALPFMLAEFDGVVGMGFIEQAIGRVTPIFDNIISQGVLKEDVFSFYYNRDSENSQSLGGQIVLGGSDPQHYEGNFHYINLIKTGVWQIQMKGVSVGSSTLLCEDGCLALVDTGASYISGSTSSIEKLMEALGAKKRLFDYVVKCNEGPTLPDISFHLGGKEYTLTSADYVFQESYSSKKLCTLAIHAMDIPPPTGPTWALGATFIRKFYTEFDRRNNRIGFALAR
The experiment in a line: Inhibition of human recombinant renin, enzymatic in vitro assay with Ang I detection by EIA. It is filed as biochemical. Particulars: human recombinant renin 0.16 ng/mL, synthetic human angiotensin (1-14) 0.5 μM, 37° C. for 3 h; read-out: IC50 (concentration of renin inhibition that inhibited the enzyme activity by 50%). How it is done: Inhibition of Human Recombinant Renin by the Compounds of the Invention The enzymatic in vitro assay was performed in 384-well polypropylene plates (Nunc). The assay buffer consisted of 10 mM PBS (Gibco BRL) including 1 mM EDTA and 0.1% BSA. The incubates were composed of 50 μL per well of an enzyme mix and 2.5 µL of renin inhibitors in DMSO. The enzyme mix was premixed at 4° C. and consists of the following components: • human recombinant renin (0.16 ng/mL)●synthetic human angiotensin (1-14) (0.5 μM) • hydroxyquinoline sulfate (1 mM) The mixtures were then incubated at 37° C. for 3 h. To determine the enzymatic activity and its inhibition, the accumulated Ang I was detected by an enzyme immunoassay (EIA) in 384-well plates (Nunc). 5 μL of the incubates or standards were transferred to immuno plates which were previously coated with a covalent complex of Ang I and bovine serum albumin (Ang I—BSA). 75 μL of Ang I-antibodies in essaybuffer above including 0.01% Tween 20 were added and a primary incubation made at 4° C. overnight. The plates were washed 3 times with PBS including 0.01% Tween 20, and then incubated for 2 h at rt with an antirabbit-peroxidase coupled antibody (WA 934, Amersham).

In the case of `Cc1c(CN(C(=O)C2=C(c3ccc(CCCOc4c(F)ccc(F)c4Cl)cc3)C[C@@H]3CC[C@H]2N3)C2CC2)ccnc1OCCCO` (racemic) [Example 1, (rac.)-(1R*, 5S*)-3-{4-[3-(2-Chloro-3,6-difluorophenoxy)propyl]phenyl}-8-azabicyclo[3.2.1]oct-2-ene-2-carboxylic acid cyclopropyl-[2-(3-hydroxy-propoxy)-3-methylpyridin-4-ylmethyl]amide], the IC50 worked out at 0.25 nM. For `Cc1cc(Cl)c(OCCOc2ccc(C3=C(C(=O)N(Cc4ccnc(OCCCO)c4C)C4CC4)C4CCC(C3)N4)cc2)c(Cl)c1` (racemic) [Example 2, (rac.)-(1R*, 5S*)-3-{4-[2-(2,6Dichloro-4-methylphenoxy)ethoxy]phenyl}-8-azabicyclo[3.2.1]oct-2-ene-2-carboxylic acid cyclopropyl-[2-3-hydroxy-propoxy)-3-methylpyridin4-ylmethyl]amide], the IC50 was 0.18 nM. The value for `Cc1c(CN(C(=O)C2=C(c3ccc(CCCOc4c(F)ccc(F)c4Cl)cc3)CC3CS(=O)(=O)CC2N3)C2CC2)ccnc1OCCCO` (racemic) [Example 3, (rac.)-(1R*, 5S*)-7-14-[3-(2-Chloro-3,6-difluorophenoxy)propyl]phenyl}-3,3-dioxo-3λ^6-thia-9-azabicyclo[3.3.1]non-6-ene-6-carboxylic acid cyclopropyl-[2-(3-hydroxypropoxy)-3-methylpyridin-4-ylmethyl]amide] was 5.51 nM; that for `Cc1c(CN(C(=O)C2=C(c3ccc(CCCOc4c(F)ccc(F)c4Cl)cc3)CC3COCC2N3)C2CC2)ccnc1OCCCO` (racemic) [Example 4, (rac.)-(1R*, 5S*)-7-(4-13-(2-Chloro-3,6-difluorophenoxy)propyl]phenyl}-3-oxa-9-azabicyclo[3.3.1]non-6-ene-6-carboxylic acid cyclopropyl-[2-(3-hydroxypropoxy)-3-methylpyridin-4-ylmethyl]amide] was 0.55 nM; that for `Cc1c(CN(C(=O)C2=C(c3ccc(CCCOc4c(F)ccc(F)c4Cl)cc3)C[C@@H]3CC[C@H]2N3)C2CC2)ccnc1OCCC(=O)O` (racemic) [Example 5, (rac.)-(1R*, 5S*)-3-(4-{[(3-{4-[3-(2-Chloro-3,6-difluorophenoxy)propyl]-phenyl}-8azabicyclo[3.2.1]oct-2-ene-2-carbonyl)cyclopropylamino]methyl}-3-methyl-pyridin-2-yloxy)propionic acid] was 3 nM.

As to `COC(=O)CCOc1nccc(CN(C(=O)C2=C(c3ccc(CCCOc4c(F)ccc(F)c4Cl)cc3)CC3CCC2N3)C2CC2)c1C` (racemic) [Example 6, (rac.)-(1R *, 5S*)-3-(4-{[(3-({4-[3-(2-Chloro-3,6-difluorophenoxy)propyl]-phenyl}-8-azabicyclo[3.2.1]oct-2-ene-2-carbonyl)cyclopropylamino]methyl}-3-methylpyridin-2-yloxy)propionic acid methyl ester], the IC50 is 6.7 nM. Turning to `Cc1c(CN(C(=O)C2=C(c3ccc(CCCOc4c(F)ccc(F)c4Cl)cc3)C[C@@H]3CC[C@H]2N3)C2CC2)ccnc1OCCC(N)=O` (racemic) [Example 7, (rac.)-(1R*, 5S*)-3-{4-[3-(2-Chloro-3,6-difluorophenoxy)propyl]phenyl}-8-azabicyclo[3.2.1]oct-2-ene-2-carboxylic acid [2-(2-carbamoylethoxy)-3-methylpyridin-4-ylmethyl]cyclopropylamide], the IC50 amounted to 3 nM.

These data come from patent US20070135405A1, “Novel diazabicyclononene and tetrahydropyridine derivatives with a new polar side-chain” (priority 2003, published 2007).
